System: 653999-131-R-J2-PDC complex spheroids, growth % test/control
Assay: Anticancer human tumor 653999-131-R-J2-PDC patient-derived lung adenocarcinoma cell line growth inhibition [AhR]
Settings: for viability, T/C: stronger effect = lower value
Description: Multicellular complex tumor spheroid response to aryl hydrocarbon receptor antagonists in combination with a variety of drugs and investigational agents in selected tumor cell lines
The current study was undertaken to assess response to aryl hydrocarbon receptor antagonists in combination with standard-of-care drugs and investigational agents in solid tumor complex spheroid models. Complex spheroids include a stromal component modeled by human endothelial cells (HUVEC) and fibroblasts modeled by human mesenchymal stem cells (MSCs). The concentration ranges selected for each drug and investigational agent were based upon clinically achievable concentrations if the clinical Cmax of the agent was known.
Compounds. The drugs and investigational agents: BAY 2416964 (NSC825713), GNF351 (NSC835774), CH-223191 (NSC835775), CPI-455 (NSC825282), aza-TdCyd (NSC777586), decitabine (NSC127716), belinostat (NSC758774), entinostat (NSC756642), pevonedistat (NSC761192), tazemetostat (NSC777109), talazoparib (NSC765396), olaparib (NSC753686), selinexor (NSC780203), nedisertib (M3814, NSC802822), bortezomib (NSC756655), venetoclax (NSC766270), doxorubicin (NSC123127), elimusertib (BAY189344, NSC800525), ceralasertib (AZD6738, NSC777638), TAK-243 (NSC785004), alisertib (NSC759677), etoposide (NSC141540), topotecan (NSC609699), eribulin (NSC707389), gemcitabine (NSC613327), carboplatin (NSC241240), cisplatin (NSC119875), and SN-38 (NSC673596) were obtained from the National Cancer Institute (NCI) Developmental Therapeutics Program Chemical Repository (32). The FDA-approved anticancer drug set is available from the Developmental Therapeutics Program at https://dtp.cancer.gov/organization/dscb/obtaining/available plates.htm. […] The stock solutions were prepared in dimethyl sulfoxide (DMSO, Sigma-Aldrich, St. Louis, MO, cat. D2650), except for the platinum compounds which were prepared in saline (Quality Biological, Gaithersburg, MD, cat. 114-055-101), at 800-fold the tested concentration and stored at -70 degrees C prior to their use. All drugs and investigational agents were tested over a range starting from a high concentration at or near the clinical Cmax and decreasing in half-log increments. If the clinical Cmax for an agent had not been determined, the highest concentration tested was 10 microM (Table 1).
Cell Culture. All cells were maintained in an incubator at 37 degrees C and 5% CO2 with 95% humidity. The PDC lines were cultured according to standard operating procedures established by the NCI PDMR (https://pdmr.cancer.gov). Briefly, all PDCs were thawed and cultured in Matrigel-coated flasks prepared with a working solution of 1X Ham's F-12 nutrient mix, without supplementation (Invitrogen, Waltham, MA, cat. 11765054), 100 U/mL penicillin-streptomycin (Invitrogen, cat. 15140122), and 2.5% Matrigel (Corning Inc., Corning, NY, cat. 354248) for the first three passages. All PDCs were cultured in complete DMEM/F-12 media containing advanced DMEM/F-12 (Invitrogen, cat. 12634028), 4.9% defined fetal bovine serum, heat inactivated (HyClone Laboratories Inc., Logan, UT, cat. SH30070.03HI), 389 ng/mL hydrocortisone (Sigma-Aldrich, cat. H4001), 9.7 ng/mL human EGF recombinant protein (Invitrogen, cat. PHG0313), 23.4 microg/mL adenine (Sigma-Aldrich, cat. A2786), 97.3 U/mL penicillin-streptomycin (Invitrogen, cat. 15140122), 1.9 mM L-glutamine (Invitrogen, cat. 25030081), and 9.7 microM Y-27632 dihydrochloride (Tocris Bioscience, Bristol, United Kingdom, cat. 1254). The PDCs were cultured in complete DMEM/F12 media without 10 microM Y-27632 dihydrochloride for at least two passages prior to the screen. The established cell lines NCI-H1341 and […] were cultured in DMEM/F-12, HEPES (Invitrogen, cat. 11330032), 5% defined fetal bovine serum (HyClone Laboratories Inc., cat. SH30070.03), ITS premix universal culture supplement [insulin (5 microg/mL), transferrin (5 microg/mL), and selenious acid (5 ng/mL)] […]

[1] = curve of first compound, second compound 0.1 µM
[2] = curve of first compound, second compound 0.316 µM
[3] = curve of first compound, second compound 1 µM
[4] = curve of first compound, second compound 3.16 µM
[5] = curve of first compound, second compound 10 µM
[6] = second compound 0.1 µM, first compound 0.0316 µM
[7] = second compound 0.1 µM, first compound 0.1 µM
[8] = second compound 0.1 µM, first compound 0.316 µM
[9] = second compound 0.1 µM, first compound 1 µM
[10] = second compound 0.1 µM, first compound 3.16 µM
[11] = second compound 0.1 µM, first compound 10 µM
[12] = second compound 0.316 µM, first compound 0.0316 µM
[13] = second compound 0.316 µM, first compound 0.1 µM
[14] = second compound 0.316 µM, first compound 0.316 µM
[15] = second compound 0.316 µM, first compound 1 µM
[16] = second compound 0.316 µM, first compound 3.16 µM
[17] = second compound 0.316 µM, first compound 10 µM
[18] = second compound 1 µM, first compound 0.0316 µM
[19] = second compound 1 µM, first compound 0.1 µM
[20] = second compound 1 µM, first compound 0.316 µM
[21] = second compound 1 µM, first compound 1 µM
[22] = second compound 1 µM, first compound 3.16 µM
[23] = second compound 1 µM, first compound 10 µM
[24] = second compound 3.16 µM, first compound 0.0316 µM
[25] = second compound 3.16 µM, first compound 0.1 µM
[26] = second compound 3.16 µM, first compound 0.316 µM
[27] = second compound 3.16 µM, first compound 1 µM
[28] = second compound 3.16 µM, first compound 3.16 µM
[29] = second compound 3.16 µM, first compound 10 µM
[30] = second compound 10 µM, first compound 0.0316 µM
[31] = second compound 10 µM, first compound 0.1 µM
[32] = second compound 10 µM, first compound 0.316 µM
[33] = second compound 10 µM, first compound 1 µM
[34] = second compound 10 µM, first compound 3.16 µM
[35] = second compound 10 µM, first compound 10 µM
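Also: spheroids exposed to agents for seven days.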

Molecule `COc1ccc([C@@H](O)c2cc(-c3ncnc4cc(N5CCOCC5)ccc34)c(F)cc2Cl)nn1` + Cc1cncc(-c2nc(NCCc3c[nH]c4ccccc34)c3ncn(C(C)C)c3n2)c1 has an IC50 [1] of 8890 nM, an IC50 [2] of over 10000 nM and an IC50 [3] of over 10000 nM. The IC50 [4] was over 10000 nM, the IC50 [5] was over 10000 nM and the viability, T/C [6] was 97.7%. The viability, T/C [7] was 121%, the viability, T/C [8] was 103% and the viability, T/C [9] was 82.4%. For the same molecule, the viability, T/C [10] was 72.5%, the viability, T/C [11] was 46.7% and the viability, T/C [12] was 121%. For the same molecule, the viability, T/C [13] was 122%, the viability, T/C [14] was 102% and the viability, T/C [15] was 99.9%. It also gave a viability, T/C [16] of 73%, a viability, T/C [17] of 54.4% and a viability, T/C [18] of 116%. It also gave a viability, T/C [19] of 123%, a viability, T/C [20] of 122% and a viability, T/C [21] of 101%. For the same molecule, the viability, T/C [22] was 87.8%, the viability, T/C [23] was 61% and the viability, T/C [24] was 125%. For the same molecule, the viability, T/C [25] was 119%, the viability, T/C [26] was 138% and the viability, T/C [27] was 93%. It also gave a viability, T/C [28] of 83.3%, a viability, T/C [29] of 60.5% and a viability, T/C [30] of 55.7%. The viability, T/C [31] was 58.9%, the viability, T/C [32] was 66.2% and the viability, T/C [33] was 65.7%. For the same molecule, the viability, T/C [34] was 66.3% and the viability, T/C [35] was 55.5%.

`CC(CO)NC(=O)c1cc(-c2ccc(Cl)cc2)nn(-c2cnn(C)c2)c1=O` (configuration not stated) was tested, and the viability, T/C (compound 0.1 µM) was 93.8% [middle of 20 runs] and the IC50 (compound alone, run of 05/31/2022) was over 10000 nM.

`CC(C)CC(NC(=O)C(Cc1ccccc1)NC(=O)c1cnccn1)B(O)O` (configuration not stated) + CC(CO)NC(=O)c1cc(-c2ccc(Cl)cc2)nn(-c2cnn(C)c2)c1=O showed an IC50 [1] of 14.1 nM, an IC50 [2] of 13.4 nM and an IC50 [3] of 15.4 nM. The IC50 [4] was 15.7 nM, the IC50 [5] was 16.4 nM and the viability, T/C (second compound 0.1 µM, first compound 0.000949 µM) was 108%. For the same molecule, the viability, T/C (second compound 0.1 µM, first compound 0.003 µM) was 116%, the viability, T/C (second compound 0.1 µM, first compound 0.00949 µM) was 65.1% and the viability, T/C (second compound 0.1 µM, first compound 0.03 µM) was 20.3%. It also gave a viability, T/C (second compound 0.1 µM, first compound 0.0949 µM) of 9.49%, a viability, T/C (second compound 0.1 µM, first compound 0.3 µM) of 3.53% and a viability, T/C (second compound 0.316 µM, first compound 0.000949 µM) of 111%. For the same molecule, the viability, T/C (second compound 0.316 µM, first compound 0.003 µM) was 121%, the viability, T/C (second compound 0.316 µM, first compound 0.00949 µM) was 64.6% and the viability, T/C (second compound 0.316 µM, first compound 0.03 µM) was 17.8%. The viability, T/C (second compound 0.316 µM, first compound 0.0949 µM) was 11.5%, the viability, T/C (second compound 0.316 µM, first compound 0.3 µM) was 2.06% and the viability, T/C (second compound 1 µM, first compound 0.000949 µM) was 101%. For the same molecule, the viability, T/C (second compound 1 µM, first compound 0.003 µM) was 122%, the viability, T/C (second compound 1 µM, first compound 0.00949 µM) was 73.4% and the viability, T/C (second compound 1 µM, first compound 0.03 µM) was 19.5%. For the same molecule, the viability, T/C (second compound 1 µM, first compound 0.0949 µM) was 14.9%, the viability, T/C (second compound 1 µM, first compound 0.3 µM) was 4.87% and the viability, T/C (second compound 3.16 µM, first compound 0.000949 µM) was 121%. The viability, T/C (second compound 3.16 µM, first compound 0.003 µM) was 120%, the viability, T/C (second compound 3.16 µM, first compound 0.00949 µM) was 73.3% and the viability, T/C (second compound 3.16 µM, first compound 0.03 µM) was 20.1%. It also gave a viability, T/C (second compound 3.16 µM, first compound 0.0949 µM) of 12.1%, a viability, T/C (second compound 3.16 µM, first compound 0.3 µM) of 4.74% and a viability, T/C (second compound 10 µM, first compound 0.000949 µM) of 99.5%. For the same molecule, the viability, T/C (second compound 10 µM, first compound 0.003 µM) was 117%, the viability, T/C (second compound 10 µM, first compound 0.00949 µM) was 74.5% and the viability, T/C (second compound 10 µM, first compound 0.03 µM) was 22.1%. The viability, T/C (second compound 10 µM, first compound 0.0949 µM) was 12.8% and the viability, T/C (second compound 10 µM, first compound 0.3 µM) was 2.47%.

`Nc1ccn(C2OC(CO)C(O)C2(F)F)c(=O)n1` (configuration not stated) + Cc1cncc(-c2nc(NCCc3c[nH]c4ccccc34)c3ncn(C(C)C)c3n2)c1 gave an IC50 [1] of 211 nM, an IC50 [2] of 222 nM and an IC50 [3] of 378 nM. For the same molecule, the IC50 [4] was 554 nM, the IC50 [5] was 166 nM and the viability, T/C [6] was 67.8%. The viability, T/C [7] was 57.9%, the viability, T/C [8] was 45.5% and the viability, T/C [9] was 38.2%. It also gave a viability, T/C [10] of 34.4%, a viability, T/C [11] of 33.4% and a viability, T/C [12] of 70.9%. For the same molecule, the viability, T/C [13] was 60.1%, the viability, T/C [14] was 45.5% and the viability, T/C [15] was 38.4%. For the same molecule, the viability, T/C [16] was 38.5%, the viability, T/C [17] was 35.4% and the viability, T/C [18] was 80.1%. It also gave a viability, T/C [19] of 66.8%, a viability, T/C [20] of 50.1% and a viability, T/C [21] of 42.4%. It also gave a viability, T/C [22] of 38.5%, a viability, T/C [23] of 33.8% and a viability, T/C [24] of 82.4%. It also gave a viability, T/C [25] of 70%, a viability, T/C [26] of 56.5% and a viability, T/C [27] of 43.5%. For the same molecule, the viability, T/C [28] was 39.6%, the viability, T/C [29] was 41.9% and the viability, T/C [30] was 61%. It also gave a viability, T/C [31] of 55.8%, a viability, T/C [32] of 42.4% and a viability, T/C [33] of 43.4%. The viability, T/C [34] was 33.3% and the viability, T/C [35] was 33.2%.
